# Results published in patent publication US20170184604A1, “DD1ALPHA RECEPTOR AND USES THEREOF IN IMMUNE DISORDERS” (THE GENERAL HOSPITAL CORPORATION, priority 2014, published 2017).
# How the values were obtained:
# PD-1 = target: T1, PD-1 (Homo sapiens, UniProt Q15116); assay: Ig fusion protein-pull down assay; type: binding
# T1 construct: full length human PD-1 and Tim3 cDNA (Sino biological) were cloned into pcDNA3.1(−) tagged with HA at C-terminus; host or cells: HEK293T
# Experimental: (§1) FIGS. 6A-6E show physical association of DD1α with PD1 but not with PD-L1. (FIG. 6A) Interaction of DD1α with PD1 or DD1α. […] The bound Ig fusion proteins were detected with anti-Ig-APC. Empty vector (pcDNA3.1)-transfected cells stained with Ig proteins are shown as a negative control (gray filled) and other staining is shown as black open. (FIG. 6B) DD1α binds to both DD1α and PD1 on CD4+ T cells. Purified CD4+ T cells from Wt and DD1α−/− mice were assayed for binding to Ig fused DD1α or PD1 proteins. Cells were incubated with DD1α-Ig (open), PD1-Ig (open), or control Ig proteins (gray filled) and the bound Ig fusion proteins were detected by anti-Ig-APC. […] The bound Ig fusion proteins were detected by anti-Ig-APC. Binding amounts were determined by percentage of APC positive cells compared to control Ig protein-bound cells. (FIG. 6C) Ig-pulldown experiments show DD1α interaction with both DD1α and PD1. […] The bead bound proteins were eluted and determined by western blot analysis using anti-HA antibody (asterisks). […] The bead bound proteins were eluted and detected by western blot analysis with anti-DD1α or anti-PD1 antibody (asterisk). […] The levels of indicated proteins were analyzed by western blot analysis. Total RNAs from control siRNA or p53 siRNA transfected MCF7 cells were assessed for mRNA levels of PD1 or PD-L1 by real-time quantitative PCR. […]
# PD-L1 = assay: Ig fusion protein staining of 293T transfectants (flow cytometry); type: binding, human; details: cell surface staining
# [1] = system: wt- or DD1α−/− mouse CD4+ T cells; assay: Ig fusion protein binding to CD4+ T cells from Wt and DD1α−/− mice
# Experimental: as §1
# human CD8+ T cells = assay: Human T cell activation assay (CFSE proliferation); type: cell-based; details: various concentrations with 3 μg/ml anti-CD3
# Experimental: (FIG. 5A) DD1α inhibits the activation of human CD4+ T cells and CD8+ T cells. Enriched human CD4+ T cells and CD8+ T cells were stained with CFSE (1 μM) and stimulated with plate-bound anti-CD3 antibody (3 μg/ml) together with 2, 5, or 10 μg/ml of DD1α-Ig proteins or control Ig proteins. The proliferations of CD4+ T or CD8+ T cells were determined by the percentages of CFSE-labeled CD4+ T or CD8+ T cells at the 72-hour culture. The levels of cytokines IFN-γ and TNF-α in culture supernatant were analyzed by ELISA at the 48-hour culture. (FIG. 5B) DD1α-mediated inhibition of T cell activation is modulated by α-PD1 antibodies. […] The proliferation and cytokine production of CD4+ T cells were determined as FIG. 5A. […] The proliferations of CD4+ T cells were determined by percentage of CFSE-diluted CD4+ cells on day 3. The levels of cytokines IFN-γ and IL-2 in culture supernatant were analyzed by ELISA on day 2. (FIG. 5D) DD1α mediates Foxp3+ iTreg cell development. […]
# The amount of Ig protein was kept constant at 10 μg/ml by the addition of control Ig protein. […] On day 3, cells were stained with anti-CD4-APC (OKT4, eBioscience for human CD4+ T cells; RM4-5, eBioscience for mouse CD4+ T cells) or anti-CD8-APC (SK1, eBioscience for human CD8+ T cells; 53-6.7, eBioscience for mouse CD8+ T cells) and then analyzed for CFSE dilution by flow cytometry.
# T1 sequence (Q15116 25-288): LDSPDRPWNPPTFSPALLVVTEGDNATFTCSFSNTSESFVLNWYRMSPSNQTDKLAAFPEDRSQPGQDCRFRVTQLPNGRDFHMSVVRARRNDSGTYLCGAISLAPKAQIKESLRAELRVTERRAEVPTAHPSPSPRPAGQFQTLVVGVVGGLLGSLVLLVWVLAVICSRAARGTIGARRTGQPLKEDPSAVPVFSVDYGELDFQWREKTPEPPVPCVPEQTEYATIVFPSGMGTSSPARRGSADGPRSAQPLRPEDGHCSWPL
substance,measurement,setting,value
DD1α-Ig: the extracellular region of DD1α fused with the immunoglobulin G Fc segment,pull down of PD-1,PD-1; lysates from transfected 293T cells,pulled down
same,pull down of endogenous PD-1,PD-1; lysates of Nutlin-3-treated MCF7 cells,found
same,binding to PD-L1 transfectants,PD-L1,not to PD-L1 or TIM-3 transfectants
same,binding to the surface of DD1α−/− CD4+ T cells compared with wt-CD4+ T cells,[1],significantly lower
same,CD8+ T cell proliferation stimulated by anti-CD3,human CD8+ T cells,strongly inhibited
